Patent publication US8293729B2 (Boehringer Ingelheim International GmbH, priority 2009, dated 2012)

Each molecule was assayed against T1, human GPR119 receptor (Homo sapiens, UniProt Q8TDV5, S329A/T327A) (assay: cAMP assay (LANCE cAMP-384) in HEK293 cells stably expressing mutant human GPR119 receptor). Details: HEK293, 20 min; 10 μM; the 30th table; read-out: stimulation in % at 10 μM.
T1 construct: N-terminal leader […]; expressed in transfected cells
T1 sequence (Q8TDV5 with tags, fused parts or gaps T327A/S329A): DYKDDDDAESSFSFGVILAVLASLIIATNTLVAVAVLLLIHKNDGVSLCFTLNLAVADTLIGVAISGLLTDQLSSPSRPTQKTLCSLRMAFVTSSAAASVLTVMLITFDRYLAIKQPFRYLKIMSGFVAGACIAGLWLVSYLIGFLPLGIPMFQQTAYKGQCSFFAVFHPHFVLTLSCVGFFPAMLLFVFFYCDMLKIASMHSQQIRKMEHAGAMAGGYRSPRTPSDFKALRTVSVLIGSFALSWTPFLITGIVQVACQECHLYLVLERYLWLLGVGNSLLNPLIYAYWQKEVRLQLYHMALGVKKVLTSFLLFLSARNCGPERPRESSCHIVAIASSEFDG
Format: cell-based
Method in brief: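 HEK293 cells stably expressing human GPR119 (T327A/S329A, modified N-terminus), 1000 cells/well, exposed to compound for 20 min at 37° C. cAMP quantified by LANCE TR-FRET against a standard curve; EC50 from 12 points, 30 μM to 100 pM, or % stimulation at 10 μM.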
In the case of `CC(C)OC(=O)N1CCC(ON=C2CCN(c3ncc(CN4CCCC4=O)cc3F)CC2)CC1` [Example 54-4], the activation at 10 µM is reported as 93%. Work on `Cc1nnn(Cc2cnc(N3CCC(=NOC4CCN(C(=O)OC(C)C)CC4)CC3)c(F)c2)n1` [Example 54-5] yielded an activation at 10 µM of 75%.

Same assay, conditions: cAMP accumulation, HEK293 cells stably expressing mutant human GPR119; read-out: EC50
`Cc1nc(C)c(-c2cc(F)c(N3CCC(=NOC4CCN(C(=O)OC(C)C)CC4)CC3)cc2F)s1` [Example 27-25] was tested, and the EC50 was greater than 10000 nM. With `CC(C)OC(=O)N1CCC(ON=C2CCN(c3cc(F)c(C=O)cc3F)CC2)CC1` [Example 2-3] the EC50 was 14 nM. `CC(C)OC(=O)N1CCC(ON=C2CCN(c3ccc(C=O)cc3)CC2)CC1` [Example 2-28] showed an EC50 greater than 10000 nM. Work on `CC(C)OC(=O)N1CCC(ON=C2CCN(c3cc(F)c(-c4ncc[nH]4)cc3F)CC2)CC1` [Example 27-22] yielded an EC50 of 54 nM. For `Cc1noc(C)c1-c1cc(F)c(N2CCC(=NOC3CCN(C(=O)OC(C)C)CC3)CC2)cc1F` [Example 27-2], the EC50 was greater than 10000 nM. In the case of `CC(C)OC(=O)N1CCC(ON=C2CCN(c3cc(F)c(Cn4ccnn4)cc3F)CC2)CC1` [Example 14-12], the EC50 is reported as 32 nM. For `CC(C)OC(=O)N1CCC(ON=C2CCN(c3cc(F)c(C(=O)NCCN)cc3F)CC2)CC1` [Example 31-2], the EC50 was 348 nM. `CC(C)OC(=O)N1CCC(ON=C2CCN(c3ccnc(O)c3)CC2)CC1` [Example 2-4] gave an EC50 greater than 10000 nM. In the case of `CC(C)OC(=O)N1CCC(ON=C2CCN(c3cc(F)c(CNCCF)cc3F)CC2)CC1` [Example 5-9], the EC50 is reported as 703 nM. `CCOC(=O)CC(=O)c1cc(F)c(N2CCC(=NOC3CCN(C(=O)OC(C)C)CC3)CC2)nc1Cl` [Example 2-48] was tested, and the EC50 was 146 nM. In the case of `CC(C)OC(=O)N1CCC(ON=C2CCN(c3cc(F)c(Cn4cnnc4)cc3F)CC2)CC1` [Example 14-17], the EC50 is reported as 28 nM.

Same assay, conditions: the 15th table; read-out: EC50
Molecule `CC(C)OC(=O)N1CCC(ON=C2CCN(c3cc(F)c(C(=O)NCCCN)cc3F)CC2)CC1` [Example 29-7] has an EC50 of 42 nM. `CC(C)OC(=O)N1CCC(ON=C2CCN(c3cc(F)c(C(=O)NCCN(C)C)cc3F)CC2)CC1` [Example 29-2] was tested, and the EC50 was 450 nM.

Same assay, conditions: the 19th table; unit inferred; read-out: EC 50
Work on `CCc1cnc(N2CCC(ON=C3CCN(c4cc(F)c(C(=O)N5C[C@@H]6C[C@H]5CN6)cc4F)CC3)CC2)nc1` [Example 29-115] yielded an EC50 of 2010 nM.

Same assay, conditions: the 32nd table; read-out: EC50
Work on `CS(=O)(=O)c1ccc(N2CCC(=NOC3CCN(c4ncc(Br)cn4)CC3)CC2)c(F)c1` [Example 63-19] yielded an EC50 of 77 nM. Molecule `CS(=O)(=O)c1ccc(N2CCC(=NOC3CCN(c4nccs4)CC3)CC2)c(F)c1` [Example 63-7] has an EC50 of 447 nM.

Same assay, conditions: the 33rd table; read-out: EC50
`COC(=O)C(C)(C)COC(=O)N1CCC(ON=C2CCN(c3ccc(S(C)(=O)=O)cc3F)CC2)CC1` [Example 64-30] gave an EC50 of 277 nM. For `CCCCOC(=O)N1CCC(ON=C2CCN(c3ccc(S(C)(=O)=O)cc3F)CC2)CC1` [Example 64-45], the EC50 was 54 nM. With `CCN(CC)CCCOC(=O)N1CCC(ON=C2CCN(c3ccc(S(C)(=O)=O)cc3F)CC2)CC1` [Example 64-29] the EC50 was greater than 10000 nM. With `CS(=O)(=O)c1ccc(N2CCC(=NOC3CCN(C(=O)OCc4ccccn4)CC3)CC2)c(F)c1` [Example 64-17] the EC50 was 1070 nM. For `CS(=O)(=O)c1ccc(N2CCC(=NOC3CCN(C(=O)OCCC4CCCCC4)CC3)CC2)c(F)c1` [Example 64-42], the EC50 was 350 nM.

Same assay, conditions: the 36th table, compounds 66-1 to 66-51; read-out: EC50
`Cc1c(CN2CCC(ON=C3CCN(c4ccc(S(C)(=O)=O)cc4F)CC3)CC2)cnn1C` [Example 66-7] was tested, and the EC50 was greater than 10000 nM. With `CS(=O)(=O)c1ccc(N2CCC(=NOC3CCN(Cc4ccc(F)cc4)CC3)CC2)c(F)c1` [Example 66-33] the EC50 was 822 nM. `Cc1ccc(CN2CCC(ON=C3CCN(c4ccc(S(C)(=O)=O)cc4F)CC3)CC2)cc1` [Example 66-26] showed an EC50 of 288 nM. In the case of `CS(=O)(=O)c1ccc(N2CCC(=NOC3CCN(Cc4ccc(C(F)(F)F)cc4)CC3)CC2)c(F)c1` [Example 66-31], the EC50 is reported as 354 nM.

Same assay, conditions: the 37th table, compounds 66-52 to 66-64; read-out: EC50
`CCCc1ccc(CN2CCC(ON=C3CCN(c4cc(F)c(S(C)(=O)=O)cc4F)CC3)CC2)cc1` [Example 66-53] showed an EC50 of 35 nM. With `CCc1ccc(C(C)N2CCC(ON=C3CCN(c4cc(F)c(S(C)(=O)=O)cc4F)CC3)CC2)cc1` (stereo not drawn) [Example 66-58] the EC50 was 72 nM.

Same assay, conditions: the 44th table, compounds 77-1 to 77-14; read-out: EC50
Work on `CCc1cnc(N2CCC(ON=C3CCN(c4cc(F)c(CC(N)=O)cc4F)CC3)CC2)nc1` [Example 77-4] yielded an EC50 of 32 nM.
